Measured values: BindingDB's records for doi:10.1016/S0960-894X(00)80623-X (1992)

Target: HMG-CoA reductase (Bos taurus)
Assay: Compound was evaluated for inhibitory activity against HMG-CoA reductase in bovine ocular cell preparation

IC50: 3000 nM
Compound: Cn1nnnc1C(/C=C/[C@@H](O)C[C@@H](O)CC(=O)O)=C(c1ccc(F)cc1)c1ccc(F)cc1
